Measurements reported in patent publication US10610125B2, “Methods and compositions for cell-proliferation-related disorders” (Agios Pharmaceuticals, Inc., priority 2009, dated 2020).
pIC50, pKi: −log10 of the molar value. Where “and” joins values, the source holds several entries; their conditions need not be identical. Equal entries are not always repeated. Where two headings read alike, the source gives them in different places.

Assays:
Type in all cases: biochemical
IDH1 wild-type [1] = target: T1, IDH1 wild-type (Homo sapiens (Human), UniProt O75874); experiment: IDH1/2 activity assay, forward reaction (isocitrate, NADP+), stopped-flow, IDH1 wild-type; conditions: Oxidative (→ NADPH), WT
Method: (§1) Enzymatic binding constants were determined using curve fitting algorithms to standard kinetic models with the Sigmaplot software package (Systat Software, San Jose, Calif.). For determination of kcat, enzyme was incubated with 5×Km of substrate and cofactor; consumption of NADPH or NADP was determined by a change in the OD340 over time. In both cases an extinction coefficient of 6200 M^−1 cm^−1 was used for NADPH.

IDH1 wild-type [2] = target: T1, IDH1 wild-type; experiment: IDH1/2 activity assay, reverse reaction (α-KG, NADPH), stopped-flow, IDH1 wild-type; conditions: Reductive (→ NADP+); WT; est.
Method: as §1

ICDH1 R132H = ICDH1 R132H (Homo sapiens (Human), UniProt O75874, R132H); experiment: IDH1 R132H inhibition assay (NADPH/aKG, resazurin to resorufin fluorescence); conditions: for IC50 Ratio (40/4): ratio of IC50 at 40 uM to 4 uM NADPH; for IC50: IDH1 R132H
Method: Assays were conducted in a volume of 76 ul assay buffer (150 mM NaCl, 10 mM MgCl2, 20 mM Tris pH 7.5, 0.03% bovine serum albumin) as follows in a standard 384-well plate: To 25 ul of substrate mix ([…], 2 mM aKG), 1 ul of test compound was added in DMSO. […] The reaction was incubated for 50 minutes at room temperature, then 25 ul of detection mix (30 uM resazurin, […]) was added and the mixture further incubated for 5 minutes at room temperature. The conversion of resazurin to resorufin was detected by fluorescent spectroscopy at Ex544 Em590 c/o 590.
(§2) The selectivity between wild type vs mutant could be >20-fold.

IDH1 wt [3] = target: T2, IDH1 wt (Homo sapiens (Human), UniProt O75874); experiment: IDH1 wt assay for inhibitor selectivity (1×Km of NADPH); conditions: 1x Km NADPH
From the text: as §2

IDH1 R132C [4] = target: T3, IDH1 R132C (Homo sapiens (Human), UniProt O75874, R132C); experiment: IDH1/2 activity assay, forward reaction (isocitrate, NADP+), stopped-flow, IDH1 R132C
Method: as §1

IDH1 R132C [5] = target: T3, IDH1 R132C; experiment: IDH1/2 activity assay, reverse reaction (α-KG, NADPH), stopped-flow, IDH1 R132C; conditions: Reductive (→ NADP+)
Method: as §1

IDH1 R132S [6] = target: T4, IDH1 R132S (Homo sapiens (Human), UniProt O75874, R132S); experiment: Reduction of alpha-ketoglutarate with NADH by IDH1 R132S; conditions: NADH 0.5 mM, alpha-Ketoglutarate 5 mM, R132S 30 ug/ml
Method: (§3) In order to evaluate the ability of the mutant enzymes to utilize NADH in the reduction of alpha-ketoglutarate, the following experiment was conducted.

IDH1 wt [7] = target: T2, IDH1 wt; experiment: Reduction of alpha-ketoglutarate with NADH by IDH1 wild type; conditions: IDH1 wt 5 ug/ml, NADH 0.5 mM
Method: as §3

IDH1 R132H [8] = target: T5, IDH1 R132H (Homo sapiens (Human), UniProt O75874, R132H); experiment: Reduction of alpha-ketoglutarate with NADH by IDH1 R132H; conditions: R132H 60 ug/ml, NADH 0.5 mM
Method: as §3

IDH1 wild-type [9] = target: T1, IDH1 wild-type; experiment: Oxidative decarboxylation of isocitrate to α-KG by IDH1 wild-type (340 nm)
Method: (§4) In these reactions, the substrate was varied while the cofactor was held constant at 500 uM. All reactions were performed in 150 mM NaCl, 20 mM Tris-Cl, pH 7.5, 10% glycerol, and 0.03% (w/v) BSA). Reaction progress was followed by spectroscopy at 340 nM monitoring the change in oxidation state of the cofactor. Sufficient enzyme was added to give a linear change in absorbance for 10 minutes.
(§5) A well-known regulatory mechanism for control of metabolic enzymes is feedback inhibition, in which the product of the reaction acts as a negative regulator for the generating enzyme.

IDH1 R132H [10] = target: T5, IDH1 R132H; experiment: Oxidative decarboxylation of isocitrate to α-KG by IDH1 R132H (340 nm)
Method: as §4, §5

IDH1 R132S [11] = target: T4, IDH1 R132S; experiment: Oxidative decarboxylation of isocitrate to α-KG by IDH1 R132S (340 nm)
Method: as §4, §5

IDH1 R132H [12] = target: T5, IDH1 R132H; experiment: Reduction of α-KG with NADPH by IDH1 R132H
Method: as §4, with “reactions,” for “reactions, the”, “50” for “150”, “potassium phosphate buffer,” for “NaCl, 20 mM Tris-Cl,”, “6.5,” for “7.5,”, “glycerol,” for “glycerol, and”, “BSA, 5 mM MgCl2, and 40 mM sodium hydrocarbonate.” for “BSA).”

IDH1 R132S [13] = target: T4, IDH1 R132S; experiment: Reduction of α-KG with NADPH by IDH1 R132S
Method: as §4, with “reactions,” for “reactions, the”, “50” for “150”, “potassium phosphate buffer,” for “NaCl, 20 mM Tris-Cl,”, “6.5,” for “7.5,”, “glycerol,” for “glycerol, and”, “BSA, 5 mM MgCl2, and 40 mM sodium hydrocarbonate.” for “BSA).”

IDH1 wild-type [14] = target: T1, IDH1 wild-type; experiment: Reduction of α-KG with NADPH by IDH1 wild-type; conditions: 40 ug/ml enzyme
Method: as §4, with “reactions,” for “reactions, the”, “50” for “150”, “potassium phosphate buffer,” for “NaCl, 20 mM Tris-Cl,”, “6.5,” for “7.5,”, “glycerol,” for “glycerol, and”, “BSA, 5 mM MgCl2, and 40 mM sodium hydrocarbonate.” for “BSA).”

[15] = read-out: ICDH IC50 (uM) @ 4 uM (10x Km) NADPH, 4 uM (10x Km) NADPH
[16] = read-out: ICDH IC50 (uM) @ 40 uM NADPH, 40 uM (100x Km) NADPH
[17] = α-KG product inhibition, competitive with isocitrate, read-out: Ki
[18] = for α-KG, cofactor 500 uM, pH 6.5
[19] = α-KG varied, cofactor 500 uM, pH 6.5
[20] = for isocitrate, cofactor 500 uM

T4 sequence (O75874 whole entry R132S): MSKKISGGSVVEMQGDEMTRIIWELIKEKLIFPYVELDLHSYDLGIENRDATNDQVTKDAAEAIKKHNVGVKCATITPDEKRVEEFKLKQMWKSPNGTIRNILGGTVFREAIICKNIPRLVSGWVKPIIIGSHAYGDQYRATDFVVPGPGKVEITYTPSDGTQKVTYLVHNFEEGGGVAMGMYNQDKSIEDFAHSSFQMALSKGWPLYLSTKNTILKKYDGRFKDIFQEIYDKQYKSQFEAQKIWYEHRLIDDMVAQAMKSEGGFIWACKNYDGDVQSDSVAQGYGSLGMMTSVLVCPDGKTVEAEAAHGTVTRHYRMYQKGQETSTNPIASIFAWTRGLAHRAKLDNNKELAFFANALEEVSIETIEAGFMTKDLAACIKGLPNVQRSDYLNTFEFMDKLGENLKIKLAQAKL
T2 sequence (O75874 whole entry): as the sequence (O75874 whole entry R132S) above, with S132R counted along it
T1 sequence (O75874 whole entry): as the sequence (O75874 whole entry R132S) above, with S132R counted along it
T5 sequence (O75874 whole entry R132H): as the sequence (O75874 whole entry R132S) above, with S132H counted along it
ICDH1 R132H, sequence (O75874 whole entry R132H): as the sequence (O75874 whole entry R132S) above, with S132H counted along it
T3 sequence (O75874 whole entry R132C): as the sequence (O75874 whole entry R132S) above, with S132C counted along it

WT
kcat (IDH1 wild-type [1]): 130000 s⁻¹
kcat (IDH1 wild-type [2]): ~7 (est.) s^−1

Cc1c(/C=C2\Sc3ccccc3C2=O)c(O)n2c(nc3ccccc32)c1C#N
IC50 Ratio (40/4) (ICDH1 R132H): 17.42
IC50 (ICDH1 R132H; [15]): 5.74 µM
IC50 (ICDH1 R132H; [16]): > 100 µM
pIC50 (IDH1 wt [3]; read-out: IDH1wt IC50 @ 1x Km): 4.79

Cc1ccc(C2=NN(c3ccccc3)C(c3cn(CCC(=O)O)nc3-c3ccccc3)C2)cc1 (centres unmarked)
IC50 Ratio (40/4) (ICDH1 R132H): 3.38
IC50 (ICDH1 R132H; [15]): 12.3 µM
IC50 (ICDH1 R132H; [16]): 41.4 µM
IDH1wt IC50 @ 1x Km (uM) (IDH1 wt [3]): NO inhibition

R132C
kcat (IDH1 R132C [4]; Oxidative (→ NADPH)): 710 s⁻¹
kcat (IDH1 R132C [5]): 550 s⁻¹

NC(=O)C1=CN([C@@H]2O[C@H](COP(=O)(O)OP(=O)(O)OC[C@H]3O[C@@H](n4cnc5c(N)ncnc54)[C@H](O)[C@@H]3O)[C@@H](O)[C@H]2O)C=CC1 [NADH]
Consumption of NADH, Mean (IDH1 R132S [6]): 0.709 Umol/min/mg
Consumption of NADH, individual runs (IDH1 R132S [6]): 0.7183 Umol/min/mg and 0.6997 Umol/min/mg
Rate, consumption of NADH, Mean (IDH1 R132S [6]): 0.001103 ΔA/sec
Rate, consumption of NADH, individual runs (IDH1 R132S [6]): 0.001117 ΔA/sec and 0.001088 ΔA/sec
consumption of NADH in the presence of alpha-ketoglutarate (IDH1 wt [7]): no measurable consumption
consumption of NADH in the presence of alpha-ketoglutarate (IDH1 R132H [8]): no measurable consumption

O=C(O)CCC(=O)C(=O)O [α-KG, α-Ketoglutarate]
pKi (IDH1 wild-type [9]; [17]): 3.21
pKi (IDH1 R132H [10]; [17]): 4.54
increase in sensitivity to feedback inhibition as compared to the wild-type enzyme (IDH1 R132H [10]; α-KG, R132H vs wild-type): 20 fold
pKi (IDH1 R132S [11]; [17]): 4.34
increase in sensitivity to feedback inhibition as compared to the wild-type enzyme (IDH1 R132S [11]; α-KG, R132S vs wild-type): 13 fold
Km (IDH1 R132H [12]; [18]): 965 µM
Hill Constant (IDH1 R132H [12]; α-KG varied): 1.8
Vmax (IDH1 R132H [12]; [19]): 1.3 µmol/min/mg
Km (IDH1 R132S [13]; [18]): 181 µM
pKi (IDH1 R132S [13]; uncompetitive substrate inhibition by α-KG): 1.61
Hill Constant (IDH1 R132S [13]; α-KG varied): 0.479
Vmax (IDH1 R132S [13]; [19]): 2.7 µmol/min/mg
NADPH consumption in reduction of α-KG (IDH1 wild-type [14]): unable to consume NADPH
pKi (IDH1 wild-type [1]; read-out: Ki,αKG): 3.21
pKi (IDH1 R132C [4]; Oxidative (→ NADPH), read-out: Ki,αKG): 4.21
Km (IDH1 R132C [5]; read-out: KM,αKG): 295 µM

O=C(O)C(=O)C(C(=O)O)C(O)C(=O)O (centres unmarked) [Oxalomalate, oxalomalate]
pKi (IDH1 wild-type [9]; IDH1 wt 1.5 ug/ml, NADP 0.5 mM, DL-isocitrate 5-650 uM, read-out: Oxalomalate Ki): 3.02
pKi (IDH1 R132H [10]; IDH1R132H 60 ug/ml, NADP 0.5 mM, DL-isocitrate 5-650 uM, read-out: Oxalomalate Ki): 3.02
susceptibility to inhibition by oxalomalate (IDH1 R132H [10]; R132H vs wt): essentially unaffected
pKi (IDH1 R132S [11]; IDH1R132S 30 ug/ml, NADP 0.5 mM, DL-isocitrate 5-650 uM, read-out: Oxalomalate Ki): 3.29
increase in susceptibility to inhibition by oxalomalate (IDH1 R132S [11]; R132S vs wt): two-fold

O=C(O)CC[C@@H](O)C(=O)O [(R)-2-hydroxyglutarate]
effect on oxidative decarboxylation of isocitrate by wild-type ICDH1 (IDH1 wild-type [9]; added in a titration series): did not show any effect

O=C(O)CC(C(=O)O)C(O)C(=O)O (centres unmarked) [isocitrate]
Km (IDH1 wild-type [9]; [20]): 56.8 µM
Km (IDH1 R132H [10]; [20]): 172 µM
Km (IDH1 wild-type [1]; read-out: KM,isocitrate): 57 µM
Km (IDH1 R132C [4]; read-out: KM,isocitrate, Oxidative (→ NADPH)): 87 mM
